Patent publication US20040137500A1, “Novel polypeptide” (Pfizer Inc, priority 2000, published 2004)

Test system: PFI-020
Assay: FLIPR cell-based assay for agonist activation of PFI-020
Design: species or system human
Conditions: 10 μM; PFI-020-transfected 293 cells (HEK 293 expressing mouse Gα15); Fluo3 FLIPR
Experimental: Fluorescence Imaging Plate Reader (FLIPR®) technology was employed as a means to detect activation of PFI-020 by agonists in a cell-based assay.
5×10^6 Human Embryonic Kidney (HEK) 293 cells expressing the mouse Gα15 gene (from here on called '293 cells′), were transiently transfected with 7.5 μg of PFI-020 (contained within the pcDNA4HIS-max-TOPO (Invitrogen) plasmid) vector, or vector alone, using Lipofectamine Plus® reagent (Gibco BRL) as per the manufacturer's protocol. The plasmid pcDNA4HIS-max-TOPO was used as it contains elements that up-regulate the level of gene transcription over standard pcDNA3.1 vectors. 24 hrs post-transfection, the cells were detached from the flask using Trypsin/EDTA solution (LTI) and seeded into a black sided, poly-D-lysine-treated, 96-well plate (Becton Dickinson) at 5×10^4 cells/well density. […] The FLIPR® processing involved reading the fluorescence for all samples for 2 minutes; during this time the fluorescence baseline was determined for the first 10 seconds. The desired amount of compound was then automatically transferred to the wells and the fluorescence was continuously monitored for the remainder of the time. […]
FIGS. 3, 4, 5 and 6 depict the action of various purinoceptor compounds at a concentration of 10 μM on PFI-020-transfected 293 cells, showing fluorescence intensity versus time (in seconds). […]

| SMILES | activation of PFI-020 (fluorescence intensity versus time) |
| --- | --- |
| Nc1nc(Cl)nc2c1ncn2[C@@H]1O[C@H](COP(=O)([O-])OP(=O)([O-])OP(=O)([O-])[O-])[C@@H](O)[C@H]1O.[Na+].[Na+].[Na+].[Na+] [2-chloro-ATP, 2-chloroadenosine triphosphate tetrasodium] | activated |
| O=c1ccn([C@@H]2O[C@H](COP(=O)(O)OP(=O)(O)OP(=O)(O)O)[C@@H](O)[C@H]2O)c(=O)[nH]1 [UTP, Uridine triphosphate] | activated |
